Values quoted from earlier work, collected in patent EP0424512B1, “ANTIMETASTATIC PEPTIDES” (SRI INTERNATIONAL, priority 1989, dated 1990).

Tested on: human fibrosarcoma HT-1080 and Chinese hamster ovary cells
Details: relative to laminin

## CDPGYIGSR [nine amino acid peptide from domain III of laminin B₁ chain]
  activity of laminin in cell attachment on a molar basis: 0.5-1%
